According to patent publication US20210213104A1, “GLUCAGON AND GLP-1 CO-AGONISTS FOR THE TREATMENT OF CHRONIC KIDNEY DISEASE AND DIABETIC KIDNEY DISEASE IN TYPE 2 DIABETES” (MEDIMMUNE LIMITED, priority 2020, published 2021):

Columns and labels:
[1] = test system: subjects with T2DM and renal impairment; assay: Phase 2a: blood pressure and heart rate (ABPM and office-based); type: in vivo, human
From the text: After instruction, subjects set up and applied an ambulatory blood pressure monitoring (ABPM) device. The subjects were advised to undergo normal daily activities while wearing the cuff and to avoid any strenuous forms of activity, bathing, or showering while wearing the cuff. The subjects were advised to remain still during the measurement with the arm relaxed at heart level. During ABPM, systolic BP, diastolic BP, heart rate pressure, heart rate, and mean arterial pressure readings were recorded over a period of 24 hours.
Based on post-hoc analysis, ABPM measurements were as follows: mean change from baseline to Day 32: −1.15 mmHg vs 2.21 mmHg (systolic, Cotadutide vs Placebo) and 2.54 mmHg vs 1.84 mmHg (diastolic, Cotadutide vs Placebo). Increases in supine blood pressure from baseline were also observed after 32 days of treatment: 1.44 mmHg vs 8.69 mmHg (systolic, Cotadutide vs placebo) and 0.57 mmHg vs 3.40 mmHg (diastolic, Cotadutide vs placebo); however, these changes were also not clinically significant and were numerically greater in the placebo group.
Based on office-based measurement, increases in postural blood pressure difference were observed after 32 days of treatment: 8.9 mmHg vs 0 1 mmHg (systolic, Cotadutide vs placebo) and 0.8 mmHg vs 1 8 mmHg (diastolic, Cotadutide vs placebo); however, these changes were not clinically significant.
By Day 32, the LS mean change from baseline in pulse rate (office-based measure) was an increase of 14.13 bpm for subjects in the Cotadutide dose group and 3.14 bpm for subjects in the placebo dose group (p <0.001). […] Mean heart rate changes from baseline to Day 32 were numerically greater while asleep (13.06 bpm vs −2.28 bpm) compared to awake (10.78 bpm vs −0.80 bpm) for subjects on Cotadutide vs placebo, respectively.

brown adipose tissue = assay: [^18F]FDG uptake by PET imaging (separate study); type: in vivo, mice
From the text: Finally, glucose uptake was elevated in brown adipose tissue in Cotadutide treated mice, which was confirmed in a separate study of [^18F]FDG uptake by PET imaging.

[2] = test system: subjects with T2DM and renal impairment; assay: Phase 2a: urine albumin:creatinine ratio (UACR); type: in vivo, human; settings: for UACR Relative Change from Baseline to End of Dosing (vs. Placebo): subjects with mean UACR > 3 mg/mmol at baseline (micro- or macroalbuminuria), 1-exponential of fold change
Procedure: Cotadutide was titrated from 50 μg up to 300 μg and administered once daily by subcutaneous (SC) injection over 32 days.
Cotadutide was administered at 50 μg once daily for 4 days, followed by 100 μg daily for 7 days, 200 μg daily for 7 days, and 300 μg daily for 14 days (n=20). Placebo was administered one daily for 32 days (n=20). Cotadutide and placebo were administered in the morning. Dosing commenced following predose baseline vital signs, blood tests (including HbA1c), an electrocardiogram (ECG), body weight measurement, and bioimpedance spectroscopy (BIS). Subjects then returned for daily dosing or remained overnight locally until Day 5, and thereafter, had visits at weekly intervals until a maintenance dose of 300 μg was established. Thus, Cotadutide or placebo was administered at the study site by study personal for the first four doses and on site on Days 5, 12, 19, and 32. At all other times, subjects preformed dosing at home.
Mean urine albumin:creatinine ratio (UACR) was lower in the Cotadutide dose group compared to placebo from Day 19 until the end of dosing, and for 8 days into the follow-up period.

[3] = test system: diet induced obese (DIO) mice; assay: Hyperinsulinemic clamps in diet induced obese (DIO) mice; type: in vivo
Procedure: Following 28 days of daily dosing with Cotadutide (10 nmol/kg), Liraglutide (5 nmol/kg; GLP-1 agonist) or g1437 (5 nmol/kg; a Gcg analog), mice underwent continuous infusion of 4 mU/kg/min insulin and [3H]-glucose to assess glucose turnover. Tissue-specific glucose uptake was assessed using 14C-2-deoxyglucose.

[4] = office-based measurement, after 32 days
[5] = subjects with mean UACR > 3 mg/mmol at baseline
[6] = subjects with mean UACR > 3 mg/mmol at baseline, ITT

CCCCCCCCCCCCCCCC(=O)N[C@@H](CCC(=O)NCCCC[C@H](NC(=O)[C@H](CC(=O)O)NC(=O)[C@H](CO)NC(=O)[C@@H](NC(=O)[C@H](Cc1ccccc1)NC(=O)[C@@H](NC(=O)CNC(=O)[C@H](CCC(N)=O)NC(=O)[C@H](CO)NC(=O)[C@@H](N)Cc1c[nH]cn1)[C@@H](C)O)[C@@H](C)O)C(=O)N[C@@H](CO)C(=O)N[C@@H](CCC(=O)O)C(=O)N[C@@H](Cc1ccc(O)cc1)C(=O)N[C@@H](CC(C)C)C(=O)N[C@@H](CC(=O)O)C(=O)N[C@@H](CO)C(=O)N[C@@H](CCC(=O)O)C(=O)N[C@@H](CCCNC(=N)N)C(=O)N[C@@H](C)C(=O)N[C@@H](CCCNC(=N)N)C(=O)N[C@@H](CC(=O)O)C(=O)N[C@@H](Cc1ccccc1)C(=O)N[C@H](C(=O)N[C@@H](C)C(=O)N[C@@H](Cc1c[nH]c2ccccc12)C(=O)N[C@@H](CC(C)C)C(=O)N[C@@H](CCC(=O)O)C(=O)N[C@@H](C)C(=O)NCC(=O)NCC(=O)O)C(C)C)C(=O)O [Cotadutide]
Mean heart rate change from baseline to Day 32, asleep ([1]; ABPM): 13.06 bpm
Mean heart rate change from baseline to Day 32, awake ([1]; ABPM): 10.78 bpm
LS mean change from baseline in pulse rate (office-based measure) ([1]; Day 32): 14.13 bpm
changes in blood pressure ([1]; after 32 days of treatment): no clinically or statistically significant changes
supine diastolic blood pressure, increase from baseline ([1]; after 32 days of treatment): 0.57 mmHg
supine systolic blood pressure, increase from baseline ([1]; after 32 days of treatment): 1.44 mmHg
changes in blood pressure ([1]; after 32 days of treatment, listed as cotadutide): no significant changes
Pulse rate increase ([1]; by day 32, P<0.001): 11 beats per minute
differences in heart rate from baseline ([1]; end of the study (Day 60)): no meaningful differences
increase in postural blood pressure difference, diastolic [1, 4]: 0.8 mmHg
increase in postural blood pressure difference, systolic [1, 4]: 8.9 mmHg
24-hour heart rate by ABPM, mean increase from baseline to Day 32 ([1]; post-hoc analysis): 11.85 bpm
ABPM diastolic blood pressure, mean change from baseline to Day 32 ([1]; post-hoc analysis): 2.54 mmHg
ABPM systolic blood pressure, mean change from baseline to Day 32 ([1]; post-hoc analysis): −1.15 mmHg
[^18F]FDG uptake by PET imaging, brown adipose tissue (brown adipose tissue): confirmed
Urine Albumin/Creatinine, End of Dosing (Day 33), Mean ([2]; Total, ITT): 10.06 mg/mmol
Urine Albumin/Creatinine, End of Dosing (Day 33), Median ([2]; Total, ITT): 2.00 mg/mmol
UACR LS Mean Change ([2]; baseline to Day 33, ANCOVA, Total, ITT): -3.05 mg/mmol
UACR Change from Baseline, Mean ([2]; baseline to Day 33, Total, ITT): -3.05 mg/mmol
UACR Change from Baseline, Median ([2]; baseline to Day 33, Total, ITT): -0.60 mg/mmol
UACR Difference in LS Mean Change (vs Placebo) ([2]; baseline to Day 33, Total, ITT): -5.07 mg/mmol
Fold Change in Log-Transformed UACR (vs. Placebo) ([2]; baseline to end of dosing, subjects with mean UACR > 3 mg/mmol at baseline): −0.70
UACR Geometric Mean (end of dosing relative to baseline) [2, 5]: 0.511
UACR Geometric Mean Ratio (vs. Placebo) [2, 5]: 0.4945
UACR Relative Change from Baseline to End of Dosing (vs. Placebo) [2]: 50.6%
UACR Relative Change from Baseline to End of Dosing (vs. Placebo) ([2]; listed as MEDI0382): 50.55%
Log-transformed UACR, End of Dosing (Day 33), Mean [2, 6]: 1.767
Log-transformed UACR, End of Dosing (Day 33), Median [2, 6]: 1.253
insulin sensitivity [3]: improves insulin sensitivity
total insulin levels during the clamp ([3]; 4 mU/kg/min insulin infusion): remained lower
glucose uptake in brown adipose tissue ([3]; 14C-2-deoxyglucose): elevated
Fasting insulin compared with vehicle ([3]; 28 days daily dosing): dramatically lower
glucose disposal rate ([3]; clamp): increased
glucose infusion rate to maintain euglycemia ˜130 mg/dL ([3]; clamp): significantly higher
